Assay results from the supplement of paper PMC11061612.

What was measured:
Experiment in all cases: Bliss excess, mean over the matrix (fraction); higher = more synergy
[1] = tested on: TE-9 (Esophageal Squamous Cell Carcinoma)
Outline: (§1)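 Cell lines in DMEM/F12 or RPMI with 10% FBS were plated in 1536-well plates, held 24 hours at 37°C, 5% CO2, then given two-drug dose matrices for 72 hours (DMSO typically 0.2%). Viability was read by CellTiter-Glo 2.0 luminescence and scaled as inhibition from 0 (vehicle wells) to 1 (blank wells). Combination Emax is the second-highest inhibition in the matrix; Bliss excess is observed combination effect minus expected EA + EB − EA·EB, EA and EB being single-agent effects.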

[2] = tested on: NCI-H2085 (Non-Small Cell Lung Carcinoma)
Outline: as §1

[3] = tested on: DoTc2-4510 (Cervical Carcinoma)
Outline: as §1

[4] = tested on: ME-1 (Acute Myeloid Leukemia)
Outline: as §1

T98G (Glioblastoma) = tested on: T98G (Glioblastoma)
Outline: as §1

NB10 (Neuroblastoma) = tested on: NB10 (Neuroblastoma)
Outline: as §1

[5] = tested on: CAL-148 (Breast Carcinoma)
Outline: as §1

[6] = tested on: Ramos-2G6-4C10 (Burkitt's Lymphoma)
Outline: as §1

[7] = tested on: TE-15 (Esophageal Squamous Cell Carcinoma)
Outline: as §1

[8] = tested on: LB831-BLC (Bladder Carcinoma)
Outline: as §1

[9] = tested on: Hs-578-T (Breast Carcinoma)
Outline: as §1

[10] = tested on: HCC-78 (Lung Adenocarcinoma)
Outline: as §1

[11] = tested on: NCI-H82 (Small Cell Lung Carcinoma)
Outline: as §1

[12] = tested on: UM-UC-3 (Bladder Carcinoma)
Outline: as §1

[13] = tested on: LS-180 (Colorectal Carcinoma)
Outline: as §1

[14] = tested on: CaR-1 (Colorectal Carcinoma)
Outline: as §1

[15] = tested on: Calu-3 (Lung Adenocarcinoma)
Outline: as §1

[16] = tested on: CCRF-CEM (T-Lymphoblastic Leukemia)
Outline: as §1

HOS (Osteosarcoma) = tested on: HOS (Osteosarcoma)
Outline: as §1

[17] = tested on: RO82-W-1 (Thyroid Gland Carcinoma)
Outline: as §1

Structure (SMILES) | Bliss excess [1] | Bliss excess [2] | Bliss excess [3] | Bliss excess [4] | Bliss excess (T98G (Glioblastoma)) | Bliss excess (NB10 (Neuroblastoma)) | Bliss excess [5] | Bliss excess [6] | Bliss excess [7] | Bliss excess [8] | Bliss excess [9] | Bliss excess [10] | Bliss excess [11] | Bliss excess [12] | Bliss excess [13] | Bliss excess [14] | Bliss excess [15] | Bliss excess [16] | Bliss excess (HOS (Osteosarcoma)) | Bliss excess [17]
O=C(c1cc(Cc2n[nH]c(=O)c3ccccc23)ccc1F)N1CCN(C(=O)C2CC2)CC1 [Olaparib] + COc1nnc2ccc(N3CCC(c4ccc(OCCN5CCN(C)C(=O)[C@H]5C)cc4)CC3)nn12 [AZD5153] (first compound max 10 µM, 7x7, partner max 1 µM) | -0.0663 | -0.0423 | -0.0755 | 0.0123 | -0.0501 | -0.0558 | -0.0366 | -0.0473 | -0.0671 | -0.0889 | -0.0551 | -0.0169 | -0.0326 | -0.0014 | -0.0495 | -0.105 | -0.0339 | 0.0457 | -0.057 | -0.0002
O=C(c1cc(Cc2n[nH]c(=O)c3ccccc23)ccc1F)N1CCN(C(=O)C2CC2)CC1 [Olaparib] + Cc1c2c(nn1C)CSCc1cc(n(C)n1)CSc1cc(c3ccccc3c1)OCCCc1c(C(=O)O)n(C)c3c-2c(Cl)ccc13 [AZD5991] (first compound max 10 µM, 7x7, partner max 1 µM) | -0.0397 | -0.062 | -0.0397 | -0.0085 | -0.0277 | -0.0166 | -0.005 | 0.0249 | -0.0392 | -0.0371 | -0.0621 | -0.0244 | -0.0755 | -0.0182 | -0.0207 | -0.0322 | -0.0453 | 0.0053 | -0.0292 | -0.0375
N#Cc1cnc(Nc2cc(NC[C@H]3CNCCO3)c(C(F)(F)F)cn2)cn1 [SRA737] + Nc1ccn([C@@H]2O[C@H](CO)[C@@H](O)C2(F)F)c(=O)n1 [Gemcitabine] (first compound max 10 µM, 7x7, partner max 0.3 µM) | 0.0126 | -0.0192 | 0.135 | 0.0803 | 0.0323 | 0.0922 | 0.0721 | 0.149 | 0.0703 | 0.0477 | 0.0695 | 0.0509 | -0.0231 | 0.0629 | -0.0884 | -0.0167 | 0.0286 | 0.0316 | 0.114 | -0.0037
N#Cc1cnc(Nc2cc(NC[C@H]3CNCCO3)c(C(F)(F)F)cn2)cn1 [SRA737] + O=c1[nH]cc(F)c(=O)[nH]1 [5-Fluorouracil] (first compound max 10 µM, 7x7, partner max 20 µM) | 0.0599 | -0.0495 | -0.0201 | -0.0532 | -0.0277 | -0.0036 | 0.0099 | -0.0068 | -0.0033 | 0.0113 | 0.0056 | 0.0929 | -0.111 | -0.0007 | -0.053 | -0.0495 | -0.0137 | 0.0179 | 0.0248 | -0.0283
Cc1nc(-c2cn3c(n2)-c2ccc(-c4cnn(C(C)(C)C(N)=O)c4)cc2OCC3)n(C(C)C)n1 [Taselisib] + O=C(Nc1ccc2[nH]nc(-c3ccncc3)c2c1)[C@@H]1CCN(CC(=O)N2CCN(c3ccc(-c4ncccn4)cc3)CC2)C1 [SCH772984] (first compound max 10 µM, 7x7, partner max 5 µM) | 0.0303 | -0.0174 | 0.0435 | 0.0001 | 0.0838 | 0.0751 | 0.103 | 0.008 | -0.0011 | -0.0305 | 0.0748 | 0.0886 | -0.0251 | 0.0679 | 0.0776 | 0.0708 | -0.0287 | 0.124 | 0.0044 | 0.0009
CC1(C)CCC(CN2CCN(c3ccc(C(=O)NS(=O)(=O)c4ccc(NCC5CCOCC5)c([N+](=O)[O-])c4)c(Oc4cnc5[nH]ccc5c4)c3)CC2)=C(c2ccc(Cl)cc2)C1 [Venetoclax] + CS(=O)(=O)CCNCc1ccc(-c2ccc3ncnc(Nc4ccc(OCc5cccc(F)c5)c(Cl)c4)c3c2)o1 [Lapatinib] (first compound max 1 µM, 7x7, partner max 10 µM) | -0.0254 | -0.0267 | -0.0509 | 0.0267 | -0.0049 | -0.0238 | -0.0237 | 0.0377 | -0.0478 | -0.0597 | -0.0054 | -0.0248 | -0.0384 | -0.0207 | -0.0428 | -0.0553 | -0.0529 | 0.0013 | -0.087 | -0.0299
